Results reported in patent publication US10449248B2, “Nutritional composition for improving the mammalian immune system” (N.V. Nutricia, priority 2008, dated 2019).

Test system: HepG2 cells
Test: Glutathione content of HepG2 cells with or without glutathione precursor amino acids
Format: cell-based
Conditions: in vitro model of normal liver, FIG. 4

Compound	effect on the glutathione homeostasis in liver HepG2 cells
N[C@@H](CS)C(=O)O [cysteine]	positive effect
NC(=O)CC[C@H](N)C(=O)O [glutamine]	positive effect
